Where a SMILES comes first, the peptide text is derived from it. Bridges are numbered along the chain shown (N, C = ends). [ ]: non-standard residue; d: D form. The star is where a group is joined. ξ: configuration not given here. Phe(4-CH2CH2COOH) = N[C@@H](Cc1ccc(CCC(=O)O)cc1)C(=O)O; Phe(3-CF3) = N[C@@H](Cc1cccc(C(F)(F)F)c1)C(=O)O; Phe(4-CF3) = N[C@@H](Cc1ccc(C(F)(F)F)cc1)C(=O)O; Phe(4-COOH) = N[C@@H](Cc1ccc(C(=O)O)cc1)C(=O)O; Bip = N[C@@H](Cc1ccc(-c2ccccc2)cc1)C(=O)O; NH(CH2)14COOH = O=C(O)CCCCCCCCCCCCCCN*; Phe(3-Me) = Cc1cccc(C[C@H](N)C(=O)O)c1; NH(CH2)12COOH = O=C(O)CCCCCCCCCCCCN*; Val(3-OH) = CC(C)(O)[C@H](N)C(=O)O; Cha = N[C@@H](CC1CCCCC1)C(=O)O; Thr(3ξ) = CC(O)[C@H](N)C(=O)O; dDab = NCC[C@@H](N)C(=O)O; Carboxymethyl = O=C(O)C*; NMeA = CN[C@@H](C)C(=O)O; Aun = NCCCCCCCCCCC(=O)O; Dab = NCC[C@H](N)C(=O)O; AEEA = NCCOCCOCC(=O)O

One may read the IC50 as the concentration at which inhibition is half-maximal.

T1 sequence (Q15116 25-288): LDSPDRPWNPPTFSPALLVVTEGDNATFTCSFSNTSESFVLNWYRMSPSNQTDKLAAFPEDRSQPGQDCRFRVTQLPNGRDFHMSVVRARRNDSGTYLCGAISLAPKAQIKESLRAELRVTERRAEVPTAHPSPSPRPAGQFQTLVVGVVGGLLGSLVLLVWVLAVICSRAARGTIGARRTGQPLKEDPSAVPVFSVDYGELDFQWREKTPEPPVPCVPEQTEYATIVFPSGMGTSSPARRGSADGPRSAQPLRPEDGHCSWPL

The experiment concerns the target T1, PD-1/PD-L1 interaction (PE-labeled human PD-L1-Ig binding to Jurkat cell line over-expressing human PD-1) (Homo sapiens, UniProt Q15116).
T1 construct: expressed in transfected cells; host or cells: Jurkat
Kind of experiment: Jurkat-PD-1 Cell Binding High-Content Screening Assay (CBA). Conditions: PE-labeled PD-L1-Ig 20 nM final, Jurkat-hPD-1 cells; read-out: Jurkat HPD1 PDL1 IC50. In outline: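 Jurkat cells overexpressing human PD-1 (8×10^3/well, DMEM + 10% FCS) preincubated with compound 2 h at 37 °C, then PE-labelled human PD-L1-Ig (20 nM final) for 1 h. Cells fixed in paraformaldehyde with Hoechst 33342; bound PD-L1 quantified by high-content imaging.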
As for `CC(=O)NCCCC[C@@H]1NC(=O)[C@H](C(C)C)NC(=O)[C@H](CC2CCCCC2)NC(=O)[C@H](CCN)NC(=O)[C@@H](CC(C)C)NC(=O)[C@H](C)N(C)C(=O)[C@H](CCC(N)=O)NC(=O)[C@H](Cc2ccc(-c3ccccc3)cc2)NC(=O)[C@H](Cc2ccc(C(=O)O)cc2)NC(=O)[C@H](Cc2cccc(C(F)(F)F)c2)NC(=O)[C@H](CC(=O)O)NC(=O)[C@H](Cc2ccc(OCC(=O)O)cc2)NC(=O)[C@H](Cc2ccc(OCC(=O)O)cc2)NC(=O)CSC[C@@H](C(=O)N[C@@H](CCN)C(=O)NCCOCCOCC(=O)NCCCCCCCCCCC(=O)O)NC1=O` [Example 2598] ({CH2CO}-Y(Carboxymethyl)Y(Carboxymethyl)D[Phe(3-CF3)][Phe(4-COOH)][Bip]Q[NMeA][dL][Dab][Cha]VK(Ac)C[Dab][AEEA][Aun]-OH; thioether N-14), the half-inhibitory concentration (IC50) stood at 2.8 nM. The result for `CC(=O)NCCCC[C@@H]1NC(=O)[C@H](C(C)(C)O)NC(=O)[C@H](CC2CCCCC2)NC(=O)[C@H](CCN)NC(=O)[C@@H](CC(C)C)NC(=O)[C@H](C)N(C)C(=O)[C@H](CCC(N)=O)NC(=O)[C@H](Cc2ccc(-c3ccccc3)cc2)NC(=O)[C@H](Cc2ccc(C(=O)O)cc2)NC(=O)[C@H](Cc2cccc(C(F)(F)F)c2)NC(=O)[C@H](CC(=O)O)NC(=O)[C@H](Cc2ccc(OCC(=O)O)cc2)NC(=O)[C@H](Cc2ccc(OCC(=O)O)cc2)NC(=O)CSC[C@@H](C(=O)N[C@H](CCN)C(=O)NCCCCCCCCCCCCC(=O)O)NC1=O` [Example 2599] ({CH2CO}-Y(Carboxymethyl)Y(Carboxymethyl)D[Phe(3-CF3)][Phe(4-COOH)][Bip]Q[NMeA][dL][Dab][Cha][Val(3-OH)]K(Ac)C[dDab]-{NH(CH2)12COOH}; thioether N-14) reads 28.2 nM; that for `CC(=O)NCCCC[C@@H]1NC(=O)[C@H](C(C)(C)O)NC(=O)[C@H](CC2CCCCC2)NC(=O)[C@H](CCN)NC(=O)[C@@H](CC(C)C)NC(=O)[C@H](C)N(C)C(=O)[C@H](CCCNC(=N)N)NC(=O)[C@H](Cc2ccc(-c3ccccc3)cc2)NC(=O)[C@H](Cc2ccc(C(=O)O)cc2)NC(=O)[C@H](Cc2cccc(C(F)(F)F)c2)NC(=O)[C@H](CC(=O)O)NC(=O)[C@H](Cc2ccc(OCC(=O)O)cc2)NC(=O)[C@H](Cc2ccc(OCC(=O)O)cc2)NC(=O)CSC[C@@H](C(=O)N[C@@H](CCN)C(=O)NCCCCCCCCCCCCC(=O)O)NC1=O` [Example 2600] ({CH2CO}-Y(Carboxymethyl)Y(Carboxymethyl)D[Phe(3-CF3)][Phe(4-COOH)][Bip]R[NMeA][dL][Dab][Cha][Val(3-OH)]K(Ac)C[Dab]-{NH(CH2)12COOH}; thioether N-14), 5.5 nM. Then `CC(C)C[C@H]1NC(=O)[C@H](C)N(C)C(=O)[C@H](Cc2ccc(OCC(=O)O)cc2)NC(=O)[C@H](Cc2ccc(-c3ccccc3)cc2)NC(=O)[C@H](Cc2ccc(C(=O)O)cc2)NC(=O)[C@H](Cc2cccc(C(F)(F)F)c2)NC(=O)[C@H](CC(=O)O)NC(=O)[C@H](Cc2ccc(OCC(=O)O)cc2)NC(=O)[C@H](C(C)O)NC(=O)CSC[C@@H](C(=O)N[C@@H](CCN)C(=O)NCCCCCCCCCCCCCCC(=O)O)NC(=O)[C@H](CCC(=O)O)NC(=O)[C@H](C(C)C)NC(=O)[C@H](CC2CCCCC2)NC(=O)[C@H](CCN)NC1=O` (stereo partly drawn) [Example 2602] ({CH2CO}-[Thr(3ξ)]Y(Carboxymethyl)D[Phe(3-CF3)][Phe(4-COOH)][Bip]Y(Carboxymethyl)[NMeA][dL][Dab][Cha]VEC[Dab]-{NH(CH2)14COOH}; thioether N-14), with 192 nM.

Take `Cc1cccc(C[C@@H]2NC(=O)[C@H](CC(=O)O)NC(=O)[C@H](Cc3ccc(OCC(=O)O)cc3)NC(=O)[C@H](C(C)O)NC(=O)CSC[C@@H](C(=O)N[C@@H](CCN)C(=O)NCCOCCOCC(=O)NCCCCCCCCCCCCCCC(=O)O)NC(=O)[C@H](CCC(=O)O)NC(=O)[C@H](C(C)C)NC(=O)[C@H](CC3CCCCC3)NC(=O)[C@H](CCN)NC(=O)[C@@H](CC(C)C)NC(=O)[C@H](C)N(C)C(=O)[C@H](Cc3ccc(OCC(=O)O)cc3)NC(=O)[C@H](Cc3ccc(-c4ccccc4)cc3)NC(=O)[C@H](Cc3ccc(C(=O)O)cc3)NC2=O)c1` (stereo partly drawn) [Example 2603] ({CH2CO}-[Thr(3ξ)]Y(Carboxymethyl)D[Phe(3-Me)][Phe(4-COOH)][Bip]Y(Carboxymethyl)[NMeA][dL][Dab][Cha]VEC[Dab][AEEA]-{NH(CH2)14COOH}; thioether N-14): the half-maximal inhibitory concentration (IC50) was found to be 405 nM.

Consider `CC(C)C[C@H]1NC(=O)[C@H](C)N(C)C(=O)[C@H](Cc2ccc(C(=O)O)cc2)NC(=O)[C@H](Cc2ccc(-c3ccccc3)cc2)NC(=O)[C@H](Cc2ccc(C(=O)O)cc2)NC(=O)[C@H](Cc2cccc(C(F)(F)F)c2)NC(=O)[C@H](CC(=O)O)NC(=O)[C@H](Cc2ccc(C(=O)O)cc2)NC(=O)[C@H](C(C)O)NC(=O)CSC[C@@H](C(=O)N[C@H](CCN)C(=O)NCCOCCOCC(=O)NCCCCCCCCCCCCC(=O)O)NC(=O)[C@H](CC(=O)O)NC(=O)[C@H](C(C)C)NC(=O)[C@H](CC2CCCCC2)NC(=O)[C@H](CCN)NC1=O` (stereo partly drawn) [Example 2604] ({CH2CO}-[Thr(3ξ)][Phe(4-COOH)]D[Phe(3-CF3)][Phe(4-COOH)][Bip][Phe(4-COOH)][NMeA][dL][Dab][Cha]VDC[dDab][AEEA]-{NH(CH2)12COOH}; thioether N-14), for which the IC50 amounted to 428 nM.

On to `CC(C)C[C@H]1NC(=O)[C@H](C)N(C)C(=O)[C@H](Cc2ccc(C(=O)O)cc2)NC(=O)[C@H](Cc2ccc(-c3ccccc3)cc2)NC(=O)[C@H](Cc2ccc(C(=O)O)cc2)NC(=O)[C@H](Cc2cccc(C(F)(F)F)c2)NC(=O)[C@H](CC(=O)O)NC(=O)[C@H](Cc2ccc(C(=O)O)cc2)NC(=O)[C@H](C(C)O)NC(=O)CSC[C@@H](C(=O)N[C@@H](CCN)C(=O)NCCOCCOCC(=O)NCCCCCCCCCCCCCCC(=O)O)NC(=O)[C@H](CC(=O)O)NC(=O)[C@H](C(C)C)NC(=O)[C@H](CC2CCCCC2)NC(=O)[C@H](CCN)NC1=O` (stereo partly drawn) [Example 2605] ({CH2CO}-[Thr(3ξ)][Phe(4-COOH)]D[Phe(3-CF3)][Phe(4-COOH)][Bip][Phe(4-COOH)][NMeA][dL][Dab][Cha]VDC[Dab][AEEA]-{NH(CH2)14COOH}; thioether N-14), for which the 50% inhibitory concentration (IC50) amounted to 615 nM. The result for `CC(=O)NCCCC[C@@H]1NC(=O)[C@H](C(C)(C)O)NC(=O)[C@H](CC2CCCCC2)NC(=O)[C@H](CCN)NC(=O)[C@@H](CC(C)C)NC(=O)[C@H](C)N(C)C(=O)[C@H](CCC(N)=O)NC(=O)[C@H](Cc2ccc(-c3ccccc3)cc2)NC(=O)[C@H](Cc2ccc(C(=O)O)cc2)NC(=O)[C@H](Cc2cccc(C(F)(F)F)c2)NC(=O)[C@H](CC(=O)O)NC(=O)[C@H](Cc2ccc(OCC(=O)O)cc2)NC(=O)[C@H](Cc2ccc(OCC(=O)O)cc2)NC(=O)CSC[C@@H](C(=O)N[C@@H](CCN)C(=O)NCCCCCCCCCCCCCCC(=O)O)NC1=O` [Example 2606] ({CH2CO}-Y(Carboxymethyl)Y(Carboxymethyl)D[Phe(3-CF3)][Phe(4-COOH)][Bip]Q[NMeA][dL][Dab][Cha][Val(3-OH)]K(Ac)C[Dab]-{NH(CH2)14COOH}; thioether N-14) reads 48.9 nM; that for `CC(=O)NCCCC[C@@H]1NC(=O)[C@H](C(C)(C)O)NC(=O)[C@H](CC2CCCCC2)NC(=O)[C@H](CCN)NC(=O)[C@@H](CC(C)C)NC(=O)[C@H](C)N(C)C(=O)[C@H](CCC(N)=O)NC(=O)[C@H](Cc2ccc(-c3ccccc3)cc2)NC(=O)[C@H](Cc2ccc(CCC(=O)O)cc2)NC(=O)[C@H](Cc2cccc(C(F)(F)F)c2)NC(=O)[C@H](CC(=O)O)NC(=O)[C@H](Cc2ccc(OCC(=O)O)cc2)NC(=O)[C@H](Cc2ccc(OCC(=O)O)cc2)NC(=O)CSC[C@@H](C(=O)N[C@@H](CCN)C(=O)NCCCCCCCCCCCCCCC(=O)O)NC1=O` [Example 2607] ({CH2CO}-Y(Carboxymethyl)Y(Carboxymethyl)D[Phe(3-CF3)][Phe(4-CH2CH2COOH)][Bip]Q[NMeA][dL][Dab][Cha][Val(3-OH)]K(Ac)C[Dab]-{NH(CH2)14COOH}; thioether N-14), 35.1 nM.

For `CC(=O)NCCCC[C@@H]1NC(=O)[C@H](C(C)(C)O)NC(=O)[C@H](CC2CCCCC2)NC(=O)[C@H](CCN)NC(=O)[C@@H](CC(C)C)NC(=O)[C@H](C)N(C)C(=O)[C@H](CCC(N)=O)NC(=O)[C@H](Cc2ccc(-c3ccccc3)cc2)NC(=O)[C@H](Cc2ccc(C(=O)O)cc2)NC(=O)[C@H](Cc2cccc(C(F)(F)F)c2)NC(=O)[C@H](CC(=O)O)NC(=O)[C@H](Cc2ccc(OCC(=O)O)cc2)NC(=O)[C@H](Cc2ccc(OCC(=O)O)cc2)NC(=O)CSC[C@@H](C(=O)N[C@@H](CCN)C(=O)NCCOCCOCC(=O)NCCOCCOCC(=O)NCCCCCCCCCCCCCCC(=O)O)NC1=O` [Example 2608] ({CH2CO}-Y(Carboxymethyl)Y(Carboxymethyl)D[Phe(3-CF3)][Phe(4-COOH)][Bip]Q[NMeA][dL][Dab][Cha][Val(3-OH)]K(Ac)C[Dab][AEEA][AEEA]-{NH(CH2)14COOH}; thioether N-14), the concentration for half-maximal inhibition (IC50) was found to be 168 nM. Then `CC(=O)NCCCC[C@@H]1NC(=O)[C@H](C(C)(C)O)NC(=O)[C@H](CC2CCCCC2)NC(=O)[C@H](CCN)NC(=O)[C@@H](CC(C)C)NC(=O)[C@H](C)N(C)C(=O)[C@H](CCC(N)=O)NC(=O)[C@H](Cc2ccc(-c3ccccc3)cc2)NC(=O)[C@H](Cc2ccc(C(=O)O)cc2)NC(=O)[C@H](Cc2cccc(C(F)(F)F)c2)NC(=O)[C@H](CC(=O)O)NC(=O)[C@H](Cc2ccc(OCC(=O)O)cc2)NC(=O)[C@H](Cc2ccc(C(F)(F)F)cc2)NC(=O)CSC[C@@H](C(=O)N[C@@H](CCN)C(=O)NCCOCCOCC(=O)NCCOCCOCC(=O)NCCCCCCCCCCCCCCC(=O)O)NC1=O` [Example 2610] ({CH2CO}-[Phe(4-CF3)]Y(Carboxymethyl)D[Phe(3-CF3)][Phe(4-COOH)][Bip]Q[NMeA][dL][Dab][Cha][Val(3-OH)]K(Ac)C[Dab][AEEA][AEEA]-{NH(CH2)14COOH}; thioether N-14), with 350 nM.

For the origin of these results see patent US20260070945A1, “MACROCYCLIC IMMUNOMODULATORS” (Bristol-Myers Squibb Company, priority 2022, published 2026).
